Data as given in PMC9508756, “Selected coffee (Coffea arabica L.) extracts inhibit intestinal α-glucosidases activities in-vitro and postprandial hyperglycemia in SD Rats” (BMC Complementary Medicine and Therapies, 2022).

Columns and labels:
Sprague–Dawley (SD) rats [1] = assay: Sucrose loading test, postprandial blood glucose in SD rats; type: in vivo, rat; conditions: sucrose 2.0 g/kg oral, extracts 0.5 g/kg, Acarbose 5.0 mg/kg, mean ± S.D., n = 5
From the text: (§1) All animal procedures were approved by the Institutional Animal Care and Use Com-[…]) of […] University (Approval number: HNU2016-0015-1). This study is reported in accordance with ARRIVE guidelines (https://arriveguidelines.org). Four-week-old male Sprague-Dawley (SD) rats were purchased from Joongang Experimental Animal Co. (Seoul, Korea) and fed with a standard diet (Samyang Diet Co., Seoul, Korea) and with water ad libitum for one week. Effect on hyperglycemia-induced by carbohydrate loads in Sprague-Dawley (SD) rats was determined by the inhibitory action of coffee extracts on postprandial hyperglycemia as described in [30]. […] In the case of the administration group, administration samples were prepared by mixing starch or sugar with coffee extracts by dose in advance were orally administrated using a zonde injection needle. […] The glucose level in blood was determined by the glucose oxidase method and compared with that of the control group. The parameters for blood glucose levels will be calculated Maximum observed peak blood glucose level (Cmax) and the time at which it is observed (Tmax) were determined based on the observed data. […] In addition, statistical significances in the animal study were determined by Student's t-test (*p < 0.05; **p < 0.01; and *** p < 0.001). […]

[2] = molecular target: rat intestinal α-glucosidase; assay: Rat small intestinal α-glucosidase inhibition assay (pNPG substrate); type: biochemical
Description: In order to investigate the inhibitory effect of coffee extracts on the absorption of glucose, rat intestinal α-glucosidase inhibitory activity was determined using the substrate p-nitrophenyl-α-D-glucopyranoside (pNPG) according to [28] with a slight modification. A total of 0.6 g of rat-intestinal acetone powder was suspended in 9 mL of 0.1 M sodium phosphate buffer 0.9%, and the suspension was sonicated for 12 times 30 s at 4 °C. It was then centrifuged (13,000 × g, 30 min, 4 °C), and the resulting supernatant was used for the assay. […] Absorbance was measured at 405 nm and compared to a control that had 50 μL of buffer solution in place of the extract by Micro-Plate Reader (SpectraMAx® i3, Molecular devices LLC., Wals, Austria). The rat α-glucosidase inhibitory activity was expressed as percent inhibition and was calculated as follows: Inhibition%=ΔAControl405-ΔAExtract405/ΔAControl405×100
All data are presented as mean ± S.D. Statistical analyses were carried out using the statistical packages SPSS 11 (Statistical Package for Social Science 11, SPSS Inc., Chicago, IL, USA) program and the significance of each group was verified with the analyses of one-way ANOVA followed by Duncan’s test of p < 0.05. In addition, statistical significances in the animal study were determined by Student’s t-test (*p < 0.05; **p < 0.01; and *** p < 0.001). […]

Sprague–Dawley (SD) rats [3] = assay: Starch loading test, postprandial blood glucose in SD rats; type: in vivo, rat; conditions: extracts 0.5 g/kg
From the text: as §1

## C[C@H]1O[C@H](O[C@H]2[C@H](O)[C@@H](O)[C@@H](O[C@H]3[C@H](O)[C@@H](O)C(O)O[C@@H]3CO)O[C@@H]2CO)[C@H](O)[C@@H](O)[C@@H]1N[C@H]1C=C(CO)[C@@H](O)[C@H](O)[C@H]1O (some centres unmarked) [Acarbose, acarbose]
Sprague–Dawley (SD) rats [1]
  AUCt (blood glucose-time curve): 376.2 ± 17.2^*** hr·mg/dL
[2]; Ethanol extract row
  IC50 rat intestinal α-glucosidase: < 500 µg/mL
[2]; Water extract row
  IC50 rat intestinal α-glucosidase: < 500 µg/mL
Sprague–Dawley (SD) rats [3]; starch 2.0 g/kg oral, Acarbose 5.0 mg/kg, mean ± S.D., n = 5
  AUCt (blood glucose-time curve): 389.0 ± 36.8^*** hr·mg/dL
Sprague–Dawley (SD) rats [3]; starch 2.0 g/kg, Acarbose 5 mg/kg oral
  blood glucose level after starch loading compared to control: significantly higher blood lowering than all the coffee types and the controls
